Source: patent US20030228395A1, “Isotropic transparent structured fluids” (Archer-Daniels Midland Company, priority 2002, published 2003)

Tests used:
[1] = Effect of pH on stability of micro-emulsions; type: physicochemical; details: maximum tocopherol acetate, line 6.4 of Example 1, dilutions 50%, 60%, 70%, 80%; buffer pH 3.4, 3.8, 5.4, 7.0, 8.6 replacing water
From the text: A buffer of different pH values (3.4, 3.8, 5.4, 7.0 and 8.6) replaced the water in the aqueous phase.

[2] = From the text: FIG. 6. […] The values assign the maximum amount of vitamin E that can be solubilized as a wt/wt percentage of the total micro-emulsion weight.
The maximum amount of vitamin E solubilized was compared among the different forms of vitamin E along line 6:4 in the five-component system of D-limonene/ethanol (1/1) as the oil phase, TWEEN 60 as surfactant, and water/1,2-propanediol (1/1) as the aqueous phase, in order to obtain insight into the difference in their interfacial behavior (FIG. 6).

Row | stability of micro-emulsions at different pH [1] | solubilization capacity when D-limonene was replaced by triacetin [2] | Structure (SMILES) | solubilization capacity along the dilution line [2]
1 | stable for over two months | – | CC(=O)Oc1c(C)c(C)c2c(c1C)CCC(C)(CCC[C@H](C)CCC[C@H](C)CCCC(C)C)O2 (stereo partly drawn) [Tocopherol Acetate, tocopherol acetate] | –
2 | – | increased along all of the dilution line | Cc1c(C)c2c(c(C)c1O)CC[C@@](C)(CCC[C@H](C)CCC[C@H](C)CCCC(C)C)O2 [alpha-tocopherol] | two main dramatic decreases in solubilization, after which a stabilization in solubilization is maintained
